Three compounds from patent US12661349B1, “Pharmaceutically acceptable salt of sphingosine-1-phosphate receptor agonist, and crystalline form thereof” (LG CHEM, LTD., priority 2021, dated 2026) can be followed below.

This data set is described as follows: Water solubility by quantitative analysis (HPLC). It counts as physicochemical. Particulars: for Water solubility (μg/mL, HPLC) 24 hr: comparison of salt forms of Compound 1; for water solubility: quantitative analysis by HPLC, crystalline form of the salt. On the procedure:
(4) Quantitative Analysis (HPLC)
Approximately 26.7 mg of the sample was precisely weighed and placed in a 500 mL volumetric flask. 450 mL of a diluted solution (methanol:purified water=1:1) was added thereto, completely dissolved, and then filled with the diluted solution up to the marked line. HPLC equipment and analysis methods are represented in Table 1 below.
Quantitative analysis was carried out in the same manner as in Example 2.
Various types of salts were prepared. After analyzing characteristics in the same manner as above, the comparisons with potassium salt and methanesulfonic acid salt (mesylate) are represented in Table 4 below.

For the compound `CC(C)n1nc(Cl)c2cc(COc3ccc4c(c3)CCC(CN3CCC(C(=O)O)CC3)=C4Cl)ccc21` [Free form, 1-[1-Chloro-6-(3-chloro-1-isopropyl-1H-indazol-5-ylmethoxy)-3,4-dihydro-naphthalen-2-ylmethyl]-piperidine-4-carboxylic acid], the solubility at 24 h (thermodynamic from solid, HPLC quantitation, 24 hr, comparison of salt forms of Compound 1, read-out: Water solubility (μg/mL, HPLC) 24 hr) came to 3.7 µg/mL. In the case of `CC(C)n1nc(Cl)c2cc(COc3ccc4c(c3)CCC(CN3CCC(C(=O)[O-])CC3)=C4Cl)ccc21.[K+]` [K salt (1 eq.), potassium salt of 1-[1-chloro-6-(3-chloro-1-isopropyl-1H-indazol-5-ylmethoxy)-3,4-dihydro-naphthalen-2-ylmethyl]-piperidine-4-carboxylic acid], the water solubility amounted to 33.2385 mg/mL. Besides, the “Water solubility (μg/mL, HPLC) 24 hr” value (HPLC quantitation, 24 hr) is 33238.5 µg/mL.

Consider `CC(C)n1nc(Cl)c2cc(COc3ccc4c(c3)CCC(CN3CCC(C(=O)O)CC3)=C4Cl)ccc21.CS(=O)(=O)O` [Mesylate (1 eq.), methanesulfonic acid salt (mesylate) of 1-[1-chloro-6-(3-chloro-1-isopropyl-1H-indazol-5-ylmethoxy)-3,4-dihydro-naphthalen-2-ylmethyl]-piperidine-4-carboxylic acid], for which the water solubility was determined as 0.5368 mg/mL. Also, under “HPLC quantitation, 24 hr”, the “Water solubility (μg/mL, HPLC) 24 hr” value stood at 536.8 µg/mL.
